Values joined by “and” are separate entries in the source; they are usually repeats but may differ in a detail not shown here. Identical values can stand only once.
Target: T1, PfCRT^Dd2_H97Y (Plasmodium falciparum, UniProt Q8IBZ9, A220S/H97Y/I356T/K76T/M74I/N326S/N75E/Q271E/R371I)
T1 construct: expressed in transfected cells; host or cells: Xenopus laevis oocytes injected with in vitro transcribed RNA (pSP64T)
T1 sequence (Q8IBZ9 1-424 M74I/N75E/K76T/H97Y/A220S/Q271E/N326S/I356T/R371I): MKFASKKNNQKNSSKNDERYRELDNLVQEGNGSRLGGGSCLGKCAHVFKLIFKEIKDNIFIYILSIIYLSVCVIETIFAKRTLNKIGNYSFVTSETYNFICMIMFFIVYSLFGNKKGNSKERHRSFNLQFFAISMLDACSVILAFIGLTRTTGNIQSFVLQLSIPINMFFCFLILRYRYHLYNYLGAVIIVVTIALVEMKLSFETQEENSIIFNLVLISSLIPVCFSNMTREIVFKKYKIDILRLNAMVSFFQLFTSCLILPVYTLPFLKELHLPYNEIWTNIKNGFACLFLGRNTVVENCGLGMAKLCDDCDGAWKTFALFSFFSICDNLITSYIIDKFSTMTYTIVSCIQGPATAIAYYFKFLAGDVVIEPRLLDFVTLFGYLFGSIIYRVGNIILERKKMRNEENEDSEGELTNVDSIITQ
Assay: Radiolabeled drug uptake in X. laevis oocytes expressing PfCRT^Dd2_H97Y
Assay type: cell-based
Details: for Vmax, maximal velocity of drug transport / Km: Michaelis-Menten fit, 10-500 μM drug, pH 6; for Km: read-out: KM, Michaelis constant
From the text: A codon-optimized coding sequence of the Dd2 isoform of PfCRT (PfCRT^Dd2) was subcloned into the pSP64T expression vector [21]. To generate the necessary mutations to introduce the amino acid substitutions H97Y, F145I, M343L or G353V into the pfcrt sequence, the overlap extension method was used. A region from the 5’-untranslated Xenopus β-globin sequence to the respective 3’ region, containing the full length pfcrt coding sequence, was amplified using the following primer pairs: for the H97Y mutation, numbers 1/4 and 2/3; for the F145I mutation, numbers 1/6 and 2/5; for the M343L mutation, numbers 1/8 and 2/7; and for the G353V mutation, numbers 1/10 and 2/9 (for primers, see S2 Table). Both PCR products were used as template for amplification of the final product using primers number 1/2. The resulting fragment was cloned into the pSP64T expression vector, and the presence of the desired mutation was confirmed by sequencing.
Adult female X. laevis frogs (purchased from NASCO) were anesthetized by submersion in a solution of 0.3% (w/v) 3-amino benzoate methanesulfonate for 15 min. Sections of the ovary were surgically removed and placed in Ca^2+-free ND96 buffer supplemented with 0.1% collagenase D (w/v; Roche), 0.5% BSA (w/v) and 9 mM Na2HPO4 at 18°C for 14–16 h while gently shaking. The oocytes were then washed several times with ND96 buffer (5 mM HEPES, pH 7.5, 96 mM NaCl, 2 mM KCl, 1.8 mM CaCl2, 1 mM MgCl2), supplemented with […] gentamycin. Healthy-looking stage V-VI oocytes were manually selected and randomly grouped for injection. A codon-optimized coding sequence of PfCRT was subcloned into the pSP64T expression vector and subsequently linearized using the restriction endonuclease BamHI or SalI (New England Biolabs GmbH). RNA for injection was transcribed in vitro using the mMESSAGE mMACHINE SP6 Transcription kit (Ambion), diluted with nuclease-free water to a final concentration of 0.6 μg/μL and stored at -80°C. RNA was injected using precision-bore glass capillary tubes (3.5-inch glass capillaries; Drummond Scientific Co.), which were pulled on a vertical puller (P-87 Flaming/Brown micropipette puller, Sutter Instrument Co.) and graduated. The micropipettes were connected to a microinjector (Nanoject II Auto-Nanoliter Injector, Drummond Scientific Co.). Injection was conducted under stereomicroscopic control. 50 nL of nuclease-free water alone (control oocytes) or 50 nL of nuclease-free water containing 30 ng of RNA was injected per oocyte. Injected oocytes were kept for 72 h at 18°C in ND96 buffer with two daily buffer changes before being used for further experiments.
Drug transport assays were performed as previously described. Briefly, measurements of radiolabeled drug uptake were made over 1 h, unless otherwise specified. […] Where specified, one or more unlabeled drugs were also present at the indicated concentrations. […] The uptake assays were terminated by removing the oocytes from the reaction medium and washing them three times with 2 mL of ice-cold ND96 buffer. Each oocyte was transferred to a separate scintillation vial and lysed by the addition of 200 μL of a 5% SDS solution. The radioactivity in the sample was measured using a liquid scintillation analyser Tri-Carb 4910 TR (PerkinElmer). Water-injected oocytes were analyzed in parallel as a negative control. The buffer from each condition was measured in duplicate in parallel to each experiment to transform counts per minute into pmol of drug. Drug uptake attributable to PfCRT was determined by subtracting the background uptake from water-injected oocytes from that of PfCRT-expressing oocytes. In all cases, at least three independent experiments were performed on oocytes from different frogs, and for each condition in an experiment, measurements were made from 10 oocytes per treatment.

Row | Compound | PfCRTDd2_H97Y-mediated CQ uptake at 10 µM CQ (10 µM CQ, single replicates) | PfCRTDd2_H97Y-mediated CQ uptake at 50 µM CQ (50 µM CQ, single replicates) | PfCRTDd2_H97Y-mediated CQ uptake at 100 µM CQ (100 µM CQ, single replicates) | PfCRTDd2_H97Y-mediated CQ uptake at 300 µM CQ (300 µM CQ, single replicates) | PfCRTDd2_H97Y-mediated CQ uptake at 500 µM CQ (500 µM CQ, single replicates) | Vmax, maximal velocity of drug transport | Km [µM] | PfCRTDd2_H97Y-mediated PPQ uptake at 10 µM PPQ (10 µM PPQ, single replicates) | PfCRTDd2_H97Y-mediated PPQ uptake at 50 µM PPQ (50 µM PPQ, single replicates) | PfCRTDd2_H97Y-mediated PPQ uptake at 100 µM PPQ (100 µM PPQ, single replicates) | PfCRTDd2_H97Y-mediated PPQ uptake at 300 µM PPQ (300 µM PPQ, single replicates) | PfCRTDd2_H97Y-mediated PPQ uptake at 500 µM PPQ (500 µM PPQ, single replicates)
1 | CCN(CC)CCCC(C)Nc1ccnc2cc(Cl)ccc12 (centres unmarked) [CQ, chloroquine] | 0.94 pmol oocyte-1 h-1 and 1.60 pmol oocyte-1 h-1 and 1.36 pmol oocyte-1 h-1 | 8.24 pmol oocyte-1 h-1 and 3.56 pmol oocyte-1 h-1 and 5.41 pmol oocyte-1 h-1 and 4.92 pmol oocyte-1 h-1 and 5.15 pmol oocyte-1 h-1 | 9.39 pmol oocyte-1 h-1 and 7.90 pmol oocyte-1 h-1 and 6.68 pmol oocyte-1 h-1 | 13.78 pmol oocyte-1 h-1 and 16.15 pmol oocyte-1 h-1 and 14.38 pmol oocyte-1 h-1 | 17.49 pmol oocyte-1 h-1 and 19.24 pmol oocyte-1 h-1 and 15.35 pmol oocyte-1 h-1 | 24 ± 1 pmol oocyte^-1 h^-1 | 184 ± 16 |  |  |  |  | 
2 | Clc1ccc2c(N3CCN(CCCN4CCN(c5ccnc6cc(Cl)ccc56)CC4)CC3)ccnc2c1 [PPQ, piperaquine] |  |  |  |  |  | 131 ± 6 pmol oocyte^-1 h^-1 and 183.94 pmol oocyte^-1 h^-1 | 106 ± 14 | 12.86 pmol oocyte-1 h-1 and 5.01 pmol oocyte-1 h-1 and 5.38 pmol oocyte-1 h-1 | 31.25 pmol oocyte-1 h-1 and 73.07 pmol oocyte-1 h-1 and 57.01 pmol oocyte-1 h-1 and 61.85 pmol oocyte-1 h-1 and 37.57 pmol oocyte-1 h-1 and 17.78 pmol oocyte-1 h-1 | 97.03 pmol oocyte-1 h-1 and 61.02 pmol oocyte-1 h-1 and 41.93 pmol oocyte-1 h-1 and 45.11 pmol oocyte-1 h-1 | 103.79 pmol oocyte-1 h-1 and 76.95 pmol oocyte-1 h-1 and 76.45 pmol oocyte-1 h-1 and 130.46 pmol oocyte-1 h-1 | 133.65 pmol oocyte-1 h-1 and 96.27 pmol oocyte-1 h-1 and 74.35 pmol oocyte-1 h-1 and 131.71 pmol oocyte-1 h-1
